ChEMBL document CHEMBL4152362, “Discovery of DS-6930, a potent selective PPARγ modulator. Part II: Lead optimization” (Bioorg Med Chem, 2018)
In brackets after ≈: the same amount, converted by molar mass.

What was measured:
[1] = Metabolic stability in cynomolgus monkey liver microsomes after 0.5 hrs; type: ADME, Macaca fascicularis, microsome; conditions: read-out: Stability
[2] = target: T1, Peroxisome proliferator-activated receptor gamma (Homo sapiens, UniProt P37231); assay: Agonist activity at recombinant human GAL4-DBD fused PPARgamma LBD expressed in COS7 cells after 24 hrs by luciferase reporter gene assay; type: cell-based
T1 sequence (P37231 whole entry): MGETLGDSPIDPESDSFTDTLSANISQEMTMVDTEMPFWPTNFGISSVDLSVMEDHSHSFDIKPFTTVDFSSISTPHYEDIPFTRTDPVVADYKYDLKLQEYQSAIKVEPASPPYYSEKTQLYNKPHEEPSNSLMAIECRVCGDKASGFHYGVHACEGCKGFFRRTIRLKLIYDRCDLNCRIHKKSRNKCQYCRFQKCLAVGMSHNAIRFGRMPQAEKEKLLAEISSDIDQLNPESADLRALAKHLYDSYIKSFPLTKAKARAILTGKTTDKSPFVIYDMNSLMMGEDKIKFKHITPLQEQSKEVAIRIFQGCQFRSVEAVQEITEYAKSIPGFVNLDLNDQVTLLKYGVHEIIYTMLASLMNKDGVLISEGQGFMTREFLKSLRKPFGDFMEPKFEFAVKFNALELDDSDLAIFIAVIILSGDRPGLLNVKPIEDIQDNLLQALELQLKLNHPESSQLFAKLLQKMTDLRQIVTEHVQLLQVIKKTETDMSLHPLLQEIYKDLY

[3] = target: T2, Peroxisome proliferator-activated receptor alpha (Homo sapiens) (UniProt Q07869); assay: Agonist activity at recombinant human GAL4-DBD fused PPARalpha LBD expressed in COS7 cells at 10 uM after 24 hrs by luciferase reporter gene assay relative to 2-(4-tert-Butylphenoxy)-3-[4-[2-[(4-pyridin-2-ylbenzoyl)amino]ethoxy] phenyl]propionic acid; type: cell-based
T2 sequence (whole entry): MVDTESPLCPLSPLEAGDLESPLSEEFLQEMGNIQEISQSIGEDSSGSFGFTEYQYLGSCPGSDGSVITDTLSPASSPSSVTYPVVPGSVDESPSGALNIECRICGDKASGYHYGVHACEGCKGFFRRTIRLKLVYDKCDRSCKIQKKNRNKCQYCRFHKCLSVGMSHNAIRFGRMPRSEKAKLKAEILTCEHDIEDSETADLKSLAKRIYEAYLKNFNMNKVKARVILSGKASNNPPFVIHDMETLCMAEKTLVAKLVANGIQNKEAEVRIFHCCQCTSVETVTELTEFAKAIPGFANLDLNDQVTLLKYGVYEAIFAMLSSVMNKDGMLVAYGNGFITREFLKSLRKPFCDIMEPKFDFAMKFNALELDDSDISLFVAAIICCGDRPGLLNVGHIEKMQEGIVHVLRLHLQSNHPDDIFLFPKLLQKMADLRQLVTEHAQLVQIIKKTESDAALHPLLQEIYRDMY

[4] = Tmax in cynomolgus monkey at 3 mg/kg, po by LC-MS/MS; type: ADME, organism-based, Macaca fascicularis; conditions: in vivo
[5] = target: T3, Peroxisome proliferator-activated receptor alpha (Homo sapiens, UniProt Q07869); assay: Agonist activity at recombinant human GAL4-DBD fused PPARalpha LBD expressed in COS7 cells after 24 hrs by luciferase reporter gene assay; type: cell-based
T3 sequence (Q07869 whole entry): T2 sequence (whole entry)

[6] = Apparent permeability of the compound after 4 hrs by PAMPA; type: ADME
[7] = Oral bioavailability in cynomolgus monkey at 3 mg/kg by LC-MS/MS; type: ADME, organism-based, Macaca fascicularis; conditions: in vivo
[8] = Clearance in cynomolgus monkey at 1 mg/kg, iv by LC-MS/MS; type: ADME, organism-based, Macaca fascicularis; conditions: in vivo
Hepatocyte [9] = assay: Cytotoxicity against F344/DuCrlCrlj rat primary hepatocytes assessed as reduction in mitochondrial enzyme activity at 100 uM after 24 hrs by WST8 assay relative to control; type: cell-based; parameters: scale not given: the % may be the effect or the level left
[10] = Volume of distribution at steady state in cynomolgus monkey at 1 mg/kg, iv by LC-MS/MS; type: ADME, organism-based, Macaca fascicularis; conditions: in vivo, read-out: Vdss
[11] = 1-octanol/PBS distribution co-efficient, log D of the compound at […] at pH 7.4 after 30 mins by HPLC-MS/MS method; type: physicochemical
[12] = AUClast in cynomolgus monkey at 3 mg/kg, po by LC-MS/MS; type: ADME, organism-based, Macaca fascicularis; parameters: dose 3 mg/kg, time 0 - last, route oral; conditions: in vivo
[13] = Cmax in cynomolgus monkey at 3 mg/kg, po by LC-MS/MS; type: ADME, organism-based, Macaca fascicularis; parameters: dose 3 mg/kg, route oral; conditions: in vivo
[14] = Half life in cynomolgus monkey at 3 mg/kg, po by LC-MS/MS; type: ADME, organism-based, Macaca fascicularis; conditions: in vivo
Hepatocyte [15] = assay: Cytotoxicity against F344/DuCrlCrlj rat primary hepatocytes assessed as reduction in mitochondrial enzyme activity at 10 to 100 uM after 24 hrs by WST8 assay; type: cell-based
[16] = Metabolic stability in human liver microsomes after 0.5 hrs; type: ADME, microsome; conditions: read-out: Stability
[17] = target: T4, Peroxisome proliferator-activated receptor gamma (Homo sapiens) (UniProt P37231); assay: Agonist activity at recombinant human GAL4-DBD fused PPARgamma LBD expressed in COS7 cells at 10 uM after 24 hrs by luciferase reporter gene assay relative to rosiglitazone; type: cell-based
T4 sequence (whole entry): T1 sequence (P37231 whole entry)

Hepatocyte [18] = assay: Cytotoxicity against F344/DuCrlCrlj rat primary hepatocytes assessed as reduction in cell viability at 100 uM after 24 hrs by LDH release assay; type: cell-based
[19] = Aqueous thermodynamic solubility of the compound in pH 6.8 solution up to 4 hrs by HPLC-UV analysis; type: physicochemical; conditions: read-out: Therm_solubility
Hepatocyte [20] = assay: Cytotoxicity against F344/DuCrlCrlj rat primary hepatocytes assessed as reduction in cell viability at 10 to 100 uM after 24 hrs by LDH release assay; type: cell-based

Cn1c(COc2cccc(C(=O)O)c2)nc2ccc(Oc3ccc(Cl)c(F)c3)cc21
remaining at 0.5 h [1]: 100% | EC50 [2]: 0.068 µM | Emax [3]: 32% | Tmax [4]: 1.67 h | EC50 [5]: > 10 µM | Papp at 4 h [6]: 38.5 ×10⁻⁶ cm/s | bioavailability [7]: 25% | clearance [8]: 0.32 mL/min/kg | Activity (Hepatocyte [9]): 19% | Vd [10]: 0.2 L/kg | logD at 0.5 h [11]: 2.7 | AUC(0-t) [12]: 40200 ng·h/mL | Cmax [13]: 4440 ng/mL | half-life [14]: 18.3 h | Activity (Hepatocyte [15]): Dose-dependent effect | remaining at 0.5 h [16]: 100% | Emax [17]: 82%

Cc1cnc(Oc2ccc3nc(COc4cccc(C(=O)O)c4)n(C)c3c2)c(F)c1
Activity (Hepatocyte [18]): Toxic | Tmax [4]: 4 h | EC50 [5]: > 10 µM | Papp at 4 h [6]: 5.8 ×10⁻⁶ cm/s | bioavailability [7]: 8.9% | clearance [8]: 3.07 mL/min/kg | Vd [10]: 0.88 L/kg | logD at 0.5 h [11]: 1.1 | AUC(0-t) [12]: 1470 ng·h/mL | Cmax [13]: 100 ng/mL | half-life [14]: 49.8 h | solubility thermodynamic at 4 h [19]: 9.2 µg/mL (≈ 22.6 µM) | Activity (Hepatocyte [15]): Non-Toxic | Activity (Hepatocyte [20]): Non-Toxic | remaining at 0.5 h [16]: 100%
